Here are results for two molecules from patent US10479803B2, “Bicyclic heteroarylaminoalkyl phenyl derivatives as PI3K inhibitors” (Incyte Corporation, priority 2014, dated 2019).

pIC50: −log10 of the molar value.

In one experiment the target is human JAK1 (Homo sapiens, UniProt P23458). Nature of the experiment: In vitro JAK kinase assay (Example J), JAK1. It counts as biochemical. The following applies: Assay J at 1 mM ATP.
In a further experiment the target is human JAK2 (Homo sapiens (Human), UniProt O60674). Nature of the experiment: In vitro JAK kinase assay (Example J), JAK2. It counts as biochemical. Conditions: ratio of IC50s, Assay J at 1 mM ATP.
Sequence of human JAK2 (O60674 828-1132): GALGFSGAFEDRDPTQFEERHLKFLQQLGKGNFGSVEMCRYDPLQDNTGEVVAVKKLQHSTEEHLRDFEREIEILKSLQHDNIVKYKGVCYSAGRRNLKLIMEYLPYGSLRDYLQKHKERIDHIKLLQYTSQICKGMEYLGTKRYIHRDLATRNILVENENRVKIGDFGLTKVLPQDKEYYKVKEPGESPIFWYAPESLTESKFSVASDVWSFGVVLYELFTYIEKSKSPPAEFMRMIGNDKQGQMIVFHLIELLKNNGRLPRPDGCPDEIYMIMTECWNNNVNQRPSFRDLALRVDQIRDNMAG

The molecule `N#CCC(CN1CCN(C(=O)c2ccc(C#N)cc2F)CC1)n1ccc(-c2ncnc3[nH]ccc23)c1` (stereo not drawn) [Example 6, 4-[(4-{3-cyano-2-[3-(7H-pyrrolo[2,3-d]pyrimidin-4-yl)-1H-pyrrol-1-yl]propyl}piperazin-1-yl)carbonyl]-3-fluorobenzonitrile] had a pIC50 against human JAK1 greater than 8.00. Also, the JAK2/JAK1 at human JAK2 is recorded as greater than 10.

Turning to `C[C@@H](O)c1nc2cnc3ccsc3c2n1[C@H]1CC[C@H](CC#N)OC1` [#1, ((2R,5S)-5-{2-[(1R)-1-Hydroxyethyl]-1H-imidazo[4,5-d]thieno[3,2-b]pyridin-1-yl}tetrahydro-2H-pyran-2-yl)acetonitrile], the JAK2/JAK1 at human JAK2 was greater than 10.

The pIC50 is −log10 of the IC50, conventionally taken in molar units. Low readings indicate a large IC50, high ones a small IC50.
